Structures are written as SMILES. Like-named read-outs stand apart in the source and are kept apart here.

What all share (assay): biochemical
Common to all, as to format: binding

In test [1] the target is cellular kinases of SH-SY5Y cells (Homo sapiens, UniProt Q96RR4). To be noted: 2µM, SH-SY5Y cells. The source says:
(§1) As KINOMEscan is an in vitro assay, and as different cell types have variable kinase expression profiles we sought to determine the kinase binding profile in our SH-SY5Y TFEB-relocalization cell model. […] Bound kinases were pulled down and analyzed by mass spectrometry to determine the in situ kinase binding profile for each compound.

For test [2], the target named is T1, cellular kinases of SH-SY5Y cells (Homo sapiens, UniProt Q86UX6).
T1 construct: endogenous in cells; host or cells: SH-SY5Y
To be noted: 2µM; SH-SY5Y cells; Labeling Site Lys2; DVKPDNILLDER; read-out: KiNativ in-cell binding, % Inhibition, STK32C/YANK3.
Excerpt: as §1

The target of test [3] is cellular kinases of SH-SY5Y cells (Homo sapiens, UniProt O75716). To be noted: 2µM; SH-SY5Y cells; Labeling Site Lys2; DLKPTNILLGDEGQPVLMDLGSMNQACIHVEGSR; read-out: KiNativ in-cell binding, % Inhibition, STK16.
Excerpt: as §1

For test [4], the target named is T2, cellular kinases of SH-SY5Y cells (Homo sapiens, UniProt O14733).
T2 construct: endogenous in cells; host or cells: SH-SY5Y
The note with it: 2µM; SH-SY5Y cells; labeling site Lys2; peptide DVKPSNILLDER
Excerpt: as §1

In test [5] the target is T3, cellular kinases of SH-SY5Y cells (Homo sapiens, UniProt Q14680).
T3 construct: endogenous in cells; host or cells: SH-SY5Y
To be noted: 2µM; SH-SY5Y cells; Labeling Site Lys2; DLKPENLLFDEYHK; read-out: KiNativ in-cell binding, % Inhibition, MELK.
Excerpt: as §1

Test [6] concerns the target cellular kinases of SH-SY5Y cells (Homo sapiens, UniProt O00418). To be noted: 2µM; SH-SY5Y cells; Labeling Site ATP; YIKYNSNSGFVR; read-out: KiNativ in-cell binding, % Inhibition, eEF2K.
Excerpt: as §1

Test [7] deals with cellular kinases of SH-SY5Y cells (Homo sapiens, UniProt Q9Y6M4). The note with it: 2µM; SH-SY5Y cells; Labeling Site Lys2; DVKPENFLIGRPGNK; read-out: KiNativ in-cell binding, % Inhibition, CSNK1G3.
Excerpt: as §1

Test [8] deals with cellular kinases of SH-SY5Y cells (Homo sapiens, UniProt P41743). The note with it: 2µM; SH-SY5Y cells; Labeling Site Lys1; IYAMKVVK; read-out: KiNativ in-cell binding, % Inhibition, PRKCI/PKCi.
Excerpt: as §1

Test [9] has as its target T4, cellular kinases of SH-SY5Y cells (Homo sapiens, UniProt Q15831).
T4 construct: endogenous in cells; host or cells: SH-SY5Y
The note with it: 2µM; SH-SY5Y cells; Labeling Site Lys2; DIKPGNLLLTTGGTLK; read-out: KiNativ in-cell binding, % Inhibition, STK11/LKB1.
Excerpt: as §1

Test [10] deals with T5, cellular kinases of SH-SY5Y cells (Homo sapiens, UniProt Q15208).
T5 construct: endogenous in cells; host or cells: SH-SY5Y
To be noted: 2µM, SH-SY5Y cells, read-out: KiNativ in-cell binding, % Inhibition, STK38/NDR1.
Excerpt: as §1

The target in test [11] is T6, cellular kinases of SH-SY5Y cells (Homo sapiens, UniProt Q13233).
T6 construct: endogenous in cells; host or cells: SH-SY5Y
The note with it: 2µM; SH-SY5Y cells; Labeling Site Lys2; DVKGANLLIDSTGQR; read-out: KiNativ in-cell binding, % Inhibition, MAP3K1.
Excerpt: as §1

The target in test [12] is T7, cellular kinases of SH-SY5Y cells (Homo sapiens, UniProt O60307).
T7 construct: endogenous in cells; host or cells: SH-SY5Y
The note with it: 2µM; SH-SY5Y cells; Labeling Site Lys2; DLKPDNLLITSLGHIK; read-out: KiNativ in-cell binding, % Inhibition, MAST3.
Excerpt: as §1

Test [13] concerns the target T8, cellular kinases of SH-SY5Y cells (Homo sapiens, UniProt Q86SG6).
T8 construct: endogenous in cells; host or cells: SH-SY5Y
To be noted: 2µM; SH-SY5Y cells; Labeling Site Lys2; DLKTQNILLDK; read-out: KiNativ in-cell binding, % Inhibition, NEK9/NEK8.
Excerpt: as §1

For test [14], the target named is cellular kinases of SH-SY5Y cells (Homo sapiens, UniProt P19784). To be noted: 2µM; SH-SY5Y cells; labeling site Lys2; peptide DVKPHNVMIDHQQK
Excerpt: as §1

The target in test [15] is T9, cellular kinases of SH-SY5Y cells (Homo sapiens, UniProt P16591).
T9 construct: endogenous in cells; host or cells: SH-SY5Y
The note with it: 2µM, SH-SY5Y cells.
Excerpt: as §1

In test [16] the target is T10, cellular kinases of SH-SY5Y cells (Homo sapiens, UniProt Q52WX2).
T10 construct: endogenous in cells; host or cells: SH-SY5Y
The note with it: 2µM; SH-SY5Y cells; Labeling Site Lys2; DIKPENVLLFDR; read-out: KiNativ in-cell binding, % Inhibition, SBK1/SBK.
Excerpt: as §1

Test [17] deals with cellular kinases of SH-SY5Y cells (Homo sapiens, UniProt P10398). To be noted: 2µM; SH-SY5Y cells; Labeling Site Lys2; DLKSNNIFLHEGLTVK; read-out: KiNativ in-cell binding, % Inhibition, ARAF.
Excerpt: as §1

Test [18] deals with cellular kinases of SH-SY5Y cells (Homo sapiens, UniProt Q2M2I8). The note with it: 2µM; SH-SY5Y cells; labeling site Lys2; peptide DLKVENILLHDR
Excerpt: as §1

Test [19] has as its target T11, cellular kinases of SH-SY5Y cells (Homo sapiens, UniProt Q07912).
T11 construct: endogenous in cells; host or cells: SH-SY5Y
The note with it: 2µM, SH-SY5Y cells, read-out: KiNativ in-cell binding, % Inhibition, TNK2/ACK.
Excerpt: as §1

Test [20] has as its target cellular kinases of SH-SY5Y cells (Homo sapiens, UniProt Q99683). The note with it: 2µM; SH-SY5Y cells; Labeling Site Lys2; DIKGDNVLINTYSGVLK; read-out: KiNativ in-cell binding, % Inhibition, MAP3K5.
Excerpt: as §1

T9 sequence (P16591 whole entry): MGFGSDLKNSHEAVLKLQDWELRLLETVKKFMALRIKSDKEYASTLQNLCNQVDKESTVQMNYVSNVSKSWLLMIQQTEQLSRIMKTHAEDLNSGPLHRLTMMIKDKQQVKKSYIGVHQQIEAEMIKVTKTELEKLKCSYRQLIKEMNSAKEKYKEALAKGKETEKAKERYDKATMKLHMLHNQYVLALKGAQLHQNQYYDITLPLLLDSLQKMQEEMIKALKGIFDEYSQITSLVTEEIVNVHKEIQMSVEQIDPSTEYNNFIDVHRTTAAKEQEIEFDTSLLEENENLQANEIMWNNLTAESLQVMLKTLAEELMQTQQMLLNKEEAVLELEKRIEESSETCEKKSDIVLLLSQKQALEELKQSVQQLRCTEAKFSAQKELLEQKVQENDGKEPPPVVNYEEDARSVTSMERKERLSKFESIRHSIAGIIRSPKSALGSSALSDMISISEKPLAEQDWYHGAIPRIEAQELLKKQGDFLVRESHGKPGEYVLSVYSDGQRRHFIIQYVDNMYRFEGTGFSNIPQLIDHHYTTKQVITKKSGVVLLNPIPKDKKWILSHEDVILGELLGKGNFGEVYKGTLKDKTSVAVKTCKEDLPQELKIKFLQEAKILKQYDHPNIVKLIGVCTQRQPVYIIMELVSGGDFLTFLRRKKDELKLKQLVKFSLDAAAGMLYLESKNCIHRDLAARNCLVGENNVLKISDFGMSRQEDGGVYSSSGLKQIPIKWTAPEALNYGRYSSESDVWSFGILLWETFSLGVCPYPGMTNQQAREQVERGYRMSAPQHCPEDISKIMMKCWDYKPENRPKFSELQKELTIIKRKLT
T5 sequence (Q15208 whole entry): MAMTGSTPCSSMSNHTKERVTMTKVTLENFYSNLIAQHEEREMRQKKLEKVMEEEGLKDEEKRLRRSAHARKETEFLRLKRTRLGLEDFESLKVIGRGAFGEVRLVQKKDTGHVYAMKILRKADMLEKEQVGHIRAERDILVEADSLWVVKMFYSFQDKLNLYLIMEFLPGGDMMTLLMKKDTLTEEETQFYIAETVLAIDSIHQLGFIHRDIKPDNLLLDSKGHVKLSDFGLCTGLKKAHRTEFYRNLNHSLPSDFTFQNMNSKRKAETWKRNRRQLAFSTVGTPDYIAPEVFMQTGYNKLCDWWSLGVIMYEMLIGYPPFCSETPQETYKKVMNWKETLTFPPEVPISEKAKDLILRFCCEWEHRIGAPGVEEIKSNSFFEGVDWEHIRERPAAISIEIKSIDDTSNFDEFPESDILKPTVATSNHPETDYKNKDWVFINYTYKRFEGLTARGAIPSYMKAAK
Chain of cellular kinases of SH-SY5Y cells (Homo sapiens, UniProt Q96RR4) (Q96RR4 whole entry): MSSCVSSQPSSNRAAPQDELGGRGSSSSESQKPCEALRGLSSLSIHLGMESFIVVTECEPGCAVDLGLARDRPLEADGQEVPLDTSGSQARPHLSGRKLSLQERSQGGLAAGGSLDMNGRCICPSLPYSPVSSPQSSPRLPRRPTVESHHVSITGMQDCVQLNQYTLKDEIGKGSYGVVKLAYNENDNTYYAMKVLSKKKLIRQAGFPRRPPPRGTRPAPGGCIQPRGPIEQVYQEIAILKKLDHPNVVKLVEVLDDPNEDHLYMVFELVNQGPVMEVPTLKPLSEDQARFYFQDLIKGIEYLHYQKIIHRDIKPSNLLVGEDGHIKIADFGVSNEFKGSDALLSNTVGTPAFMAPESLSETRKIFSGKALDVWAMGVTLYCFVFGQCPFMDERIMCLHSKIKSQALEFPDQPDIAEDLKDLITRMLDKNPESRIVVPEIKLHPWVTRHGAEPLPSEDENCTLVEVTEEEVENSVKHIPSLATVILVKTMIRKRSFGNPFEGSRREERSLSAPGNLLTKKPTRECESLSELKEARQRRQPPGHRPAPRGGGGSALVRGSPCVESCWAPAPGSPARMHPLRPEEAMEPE
T11 sequence (Q07912 whole entry): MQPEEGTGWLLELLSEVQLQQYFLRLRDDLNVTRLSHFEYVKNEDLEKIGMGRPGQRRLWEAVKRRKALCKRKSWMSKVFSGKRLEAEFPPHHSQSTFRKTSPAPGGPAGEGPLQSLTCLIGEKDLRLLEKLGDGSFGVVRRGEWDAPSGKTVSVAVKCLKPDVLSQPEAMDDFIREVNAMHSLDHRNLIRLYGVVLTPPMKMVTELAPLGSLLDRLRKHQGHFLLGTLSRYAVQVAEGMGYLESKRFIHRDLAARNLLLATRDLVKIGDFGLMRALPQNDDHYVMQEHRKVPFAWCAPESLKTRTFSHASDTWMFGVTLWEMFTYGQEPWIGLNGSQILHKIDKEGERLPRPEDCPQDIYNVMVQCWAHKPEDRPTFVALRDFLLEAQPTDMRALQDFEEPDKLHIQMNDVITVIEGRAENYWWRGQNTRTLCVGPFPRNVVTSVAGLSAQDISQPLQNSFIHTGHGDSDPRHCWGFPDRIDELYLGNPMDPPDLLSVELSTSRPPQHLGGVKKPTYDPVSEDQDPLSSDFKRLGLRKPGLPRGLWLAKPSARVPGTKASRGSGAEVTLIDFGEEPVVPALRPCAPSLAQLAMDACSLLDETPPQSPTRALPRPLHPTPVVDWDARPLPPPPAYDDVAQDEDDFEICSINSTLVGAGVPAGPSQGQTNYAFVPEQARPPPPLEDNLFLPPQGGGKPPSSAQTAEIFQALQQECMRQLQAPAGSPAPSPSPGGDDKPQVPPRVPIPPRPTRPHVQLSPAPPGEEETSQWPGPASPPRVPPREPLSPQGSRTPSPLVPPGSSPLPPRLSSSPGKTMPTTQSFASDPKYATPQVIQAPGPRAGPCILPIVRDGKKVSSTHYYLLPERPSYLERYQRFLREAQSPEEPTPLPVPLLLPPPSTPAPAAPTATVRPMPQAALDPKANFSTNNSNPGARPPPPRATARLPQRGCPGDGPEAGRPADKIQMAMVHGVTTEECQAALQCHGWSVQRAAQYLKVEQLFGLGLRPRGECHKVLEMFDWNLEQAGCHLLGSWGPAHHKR
T2 sequence (O14733 whole entry): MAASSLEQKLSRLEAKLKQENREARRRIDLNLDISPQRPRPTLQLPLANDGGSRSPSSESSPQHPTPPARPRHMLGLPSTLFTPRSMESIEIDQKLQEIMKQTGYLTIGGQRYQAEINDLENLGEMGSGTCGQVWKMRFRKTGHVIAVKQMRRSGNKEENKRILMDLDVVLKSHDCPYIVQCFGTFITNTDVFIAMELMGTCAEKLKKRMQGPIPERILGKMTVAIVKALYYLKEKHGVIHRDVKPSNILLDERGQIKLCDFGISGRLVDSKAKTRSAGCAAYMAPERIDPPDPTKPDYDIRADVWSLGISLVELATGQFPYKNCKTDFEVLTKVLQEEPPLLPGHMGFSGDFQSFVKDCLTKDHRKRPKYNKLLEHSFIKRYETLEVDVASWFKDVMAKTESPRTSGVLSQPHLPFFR
Chain of cellular kinases of SH-SY5Y cells (Homo sapiens, UniProt P10398) (P10398 whole entry): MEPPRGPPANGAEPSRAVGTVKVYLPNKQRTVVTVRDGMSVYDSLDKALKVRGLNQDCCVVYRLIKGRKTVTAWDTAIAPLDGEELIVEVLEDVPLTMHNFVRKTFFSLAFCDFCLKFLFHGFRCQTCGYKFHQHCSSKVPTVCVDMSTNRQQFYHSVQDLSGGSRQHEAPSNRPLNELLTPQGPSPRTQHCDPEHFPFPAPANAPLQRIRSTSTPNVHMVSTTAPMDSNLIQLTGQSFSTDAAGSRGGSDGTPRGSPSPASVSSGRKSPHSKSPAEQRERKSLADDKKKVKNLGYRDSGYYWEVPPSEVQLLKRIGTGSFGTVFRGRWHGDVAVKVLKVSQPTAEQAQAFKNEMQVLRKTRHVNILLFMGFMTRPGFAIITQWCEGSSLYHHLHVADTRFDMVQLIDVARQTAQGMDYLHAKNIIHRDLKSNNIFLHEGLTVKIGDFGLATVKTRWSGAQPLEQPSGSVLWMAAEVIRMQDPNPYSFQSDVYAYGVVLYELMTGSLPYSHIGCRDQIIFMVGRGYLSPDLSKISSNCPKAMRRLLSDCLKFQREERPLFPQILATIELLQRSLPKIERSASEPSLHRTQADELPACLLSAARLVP
T4 sequence (Q15831 whole entry): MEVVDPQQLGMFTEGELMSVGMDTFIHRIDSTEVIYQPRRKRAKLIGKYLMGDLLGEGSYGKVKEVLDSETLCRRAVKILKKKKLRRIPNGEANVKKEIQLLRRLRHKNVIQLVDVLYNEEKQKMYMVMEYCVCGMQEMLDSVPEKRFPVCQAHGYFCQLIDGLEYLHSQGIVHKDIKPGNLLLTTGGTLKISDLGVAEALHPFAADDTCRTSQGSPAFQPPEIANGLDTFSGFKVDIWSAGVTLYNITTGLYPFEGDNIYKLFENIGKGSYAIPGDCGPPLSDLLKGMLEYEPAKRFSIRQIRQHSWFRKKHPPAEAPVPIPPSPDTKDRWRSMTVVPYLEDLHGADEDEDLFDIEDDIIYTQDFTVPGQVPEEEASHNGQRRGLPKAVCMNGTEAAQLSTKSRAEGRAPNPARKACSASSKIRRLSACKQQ
Chain of cellular kinases of SH-SY5Y cells (Homo sapiens, UniProt P41743) (P41743 whole entry): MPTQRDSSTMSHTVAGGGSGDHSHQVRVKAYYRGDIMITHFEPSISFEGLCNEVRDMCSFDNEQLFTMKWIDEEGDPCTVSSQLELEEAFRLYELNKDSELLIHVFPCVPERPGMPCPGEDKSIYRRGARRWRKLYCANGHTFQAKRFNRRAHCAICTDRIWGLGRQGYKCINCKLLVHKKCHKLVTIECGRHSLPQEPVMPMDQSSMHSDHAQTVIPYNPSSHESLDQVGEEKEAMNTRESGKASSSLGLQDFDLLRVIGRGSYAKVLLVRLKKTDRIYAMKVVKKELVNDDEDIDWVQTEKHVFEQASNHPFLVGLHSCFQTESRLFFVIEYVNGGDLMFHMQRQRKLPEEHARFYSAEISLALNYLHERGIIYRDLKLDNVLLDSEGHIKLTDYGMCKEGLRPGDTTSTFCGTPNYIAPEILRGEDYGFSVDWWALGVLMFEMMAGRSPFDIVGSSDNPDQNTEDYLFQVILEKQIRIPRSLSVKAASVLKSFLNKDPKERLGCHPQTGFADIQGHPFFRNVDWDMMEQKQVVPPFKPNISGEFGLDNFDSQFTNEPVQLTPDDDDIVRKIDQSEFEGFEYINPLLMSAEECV

Regarding `Cc1cccc(-c2nc(Nc3ccc4ncsc4c3)c3ccccc3n2)n1` [NK140], the inhibition at 2 µM in test [1] (Labeling Site Lys1, LAYNENDNTYYAMKVLSK, read-out: KiNativ in-cell binding, % Inhibition, CaMKK2) was -64%; in test [2], -34.7%; in [3], -42.2%; in test [5], -40.7%; in test [6] it was 26%; in test [7], -29%. Moreover, the inhibition at 2 µM is -1.3% in [8]; 58% in test [9]; -36.9% in test [10] (Labeling Site Lys1, DTGHVYAMKILR); 20.9% in test [10] (Labeling Site Lys2, DIKPDNLLLDSK); -7.7% in test [11]; 1.2% in test [12]. Also, the inhibition at 2 µM is 15.8% in [13]; 3.5% in test [16]; 28.7% in [17]; -3.4% in [19] (Labeling Site Activation Loop, KVPFAWCAPESLK); 12.9% in test [19] (Labeling Site Lys1, TVSVAVKCLKPDVLSQPEAMDDFIR); 18.7% in [20]. In addition, in test [1] (labeling site Lys2, peptide DIKPSNLLVGEDGHIK), the “KiNativ in-cell binding, CaMKK2” value is reported as -31.8. In test [4], the “KiNativ in-cell binding, MAP2K7” value is recorded as -84.9. For the same compound, the “KiNativ in-cell binding, CSNK2A2” value in [14] is -67.6. Further, the “KiNativ in-cell binding, FER” value is -42.5 in test [15] (labeling site Activation Loop, peptide QEDGGVYSSSGLKQIPIK) and -53.4 in test [15] (labeling site Lys1, peptide TSVAVKTCKEDLPQELK). Further, the “KiNativ in-cell binding, AAK1” value in [18] is -42.8.

The values are drawn from PMC9851200, “Multiparameter phenotypic screening for endogenous TFEB and TFE3 translocation identifies novel chemical series modulating lysosome function” (Autophagy, 2022).
